Reference: patent publication US11560400B2, “Salts of diphosphate phosphoramidate of nucleosides as anticancer compounds” (NuCana plc, priority 2017, dated 2023)
Counter-ions that a name gives are not always drawn. Like-named read-outs stand apart in the source and are kept apart here.

Tests used:
RL = assay: CellTiterGlo cell viability assay, RL; type: cell-based; conditions: 72 h; for EC50: Table 4 classes, read-out: Ab EC50; for inhibition at 198 µM: read-out: Top Inh
Experimental: (§1) A subset of compounds of the invention were assayed for their cytotoxic activity in an array of different solid tumours and haematological malignancies using the following assay.
(§2) In vitro viability assay were performed to assess the effects of compounds on cell viability in selected cell lines over 72 h using the CellTiterGlo (CTG, Promega-G7573) assay. The tests were performed in duplicates with treatment of compounds at 9 points, 3.16 folds titration in 96 well plates over ˜72 h. The compound starting concentrations were 198 μM. Cell viability assay using CellTiterGlo in 96-well plate were performed. Compound treatment 72 h, standard growth conditions, duplicates. Compounds were dissolved to 40 mM with thawed […]. Compounds were serially diluted at 3.16 fold in thawed DMSO, and warmed to 37° C. before being dissolved in media (2 μL+200 μL). After compounds were dissolved in media, media containing compounds were warmed to 37° C. in incubator and then compounds in media were added to cell plates (50 μL+50 μL) in duplicates. The compounds' final concentrations were from 198 μM to 19.8 nM. All compound solubilities were checked and recorded again, then the plates were transferred to CO2 tissue culture incubator immediately and incubated for 3 days. DMSO final concentration is 0.5%. The parent nucleoside in each case was tested as a comparator, as was an exemplary ProTide. The drugs of the ProTide class that were tested were as follows:
(§3) The following cell lines were tested and are referred to in the Table 1 below:
(§4) In Tables 2, 3 and 4, ‘Ab EC50’ refers to the absolute EC50 and ‘Top inhibit’ refers to the percentage inhibition achieved at the highest concentration tested.

HepG2 = assay: CellTiterGlo cell viability assay, HepG2; type: cell-based; conditions: HepG2, 72 h; for inhibition at 198 µM: read-out: Top Inhibit
Experimental: as §1, §2, §3, §4

MOLT-4 = assay: CellTiterGlo cell viability assay, MOLT-4; type: cell-based; conditions: MOLT-4, 72 h; for EC50: Table 4 classes, read-out: Ab EC50; for inhibition at 198 µM: read-out: Top Inh
Experimental: as §1, §2, §3, §4

RPMI-8226 = assay: CellTiterGlo cell viability assay, RPMI-8226; type: cell-based, Human; conditions: RPMI-8226, 72 h; for EC50: Table 4 classes, read-out: Ab EC50; for inhibition at 198 µM: read-out: Top Inh
Experimental: as §1, §2, §3, §4

KG-1 = assay: CellTiterGlo cell viability assay, KG-1; type: cell-based; conditions: KG-1, 72 h; for EC50: Table 4 classes, read-out: Ab EC50; for inhibition at 198 µM: read-out: Top Inhibit
Experimental: as §1, §2, §3, §4

K562 = assay: CellTiterGlo cell viability assay, K562; type: cell-based; conditions: for EC50: K 562, 72 h, Table 4 classes, read-out: Ab EC50; for inhibition at 198 µM: read-out: Top Inh
Experimental: as §1, §2, §3, §4

HL-60 = assay: CellTiterGlo cell viability assay, HL-60; type: cell-based; conditions: HL-60, 72 h; for EC50: Table 4 classes, read-out: Ab EC50; for inhibition at 198 µM: read-out: Top Inh
Experimental: as §1, §2, §3, §4

HT29 = assay: CellTiterGlo cell viability assay, HT29; type: cell-based; conditions: HT29, 72 h; for EC50: Table 4 classes, read-out: Ab EC50; for inhibition at 198 µM: read-out: Top Inhibit
Experimental: as §1, §2, §3, §4

MCF-7 = assay: CellTiterGlo cell viability assay, MCF-7; type: cell-based; conditions: MCF-7, 72 h, percentage inhibition at the highest concentration tested; for inhibition at 198 µM: Homo sapiens, MCF7, 72 h, read-out: Top Inhibit
Experimental: as §1, §2, §3, §4

CCRF-CEM = assay: CellTiterGlo cell viability assay, CCRF-CEM; type: cell-based; conditions: 72 h; for EC50: Table 4 classes, read-out: Ab EC50; for inhibition at 198 µM: read-out: Top Inh
Experimental: as §1, §2, §3, §4

OVCAR 3 = assay: CellTiterGlo cell viability assay, OVCAR 3; type: cell-based; conditions: for EC50: Table 4 classes, read-out: Ab EC50; for inhibition at 198 µM: OVCAR-3, 72 h, read-out: Top Inhibit
Experimental: as §1, §2, §3, §4

[1] = percentage inhibition at the highest concentration tested
[2] = Homo sapiens, percentage inhibition at the highest concentration tested
[3] = Homo sapiens, K562, 72 h, percentage inhibition at the highest concentration tested
[4] = Homo sapiens, HT-29, 72 h, percentage inhibition at the highest concentration tested

Compound | inhibition at 198 µM (RL; [2]) [%] | inhibition at 198 µM (HepG2; [2]) [%] | inhibition at 198 µM (MOLT-4; [2]) [%] | EC50 (MOLT-4; Homo sapiens) [nM] | EC50 (RPMI-8226; Homo sapiens) [nM] | inhibition at 198 µM (RPMI-8226; [2]) [%] | EC50 (KG-1; Homo sapiens) [nM] | inhibition at 198 µM (KG-1; [2]) [%] | inhibition at 198 µM (K562; [3]) [%] | EC50 (K562; Homo sapiens, K562) [nM] | EC50 (HL-60; Homo sapiens) [nM] | inhibition at 198 µM (HL-60; [2]) [%] | EC50 (HT29; Homo sapiens, HT-29, 72 h) [nM] | inhibition at 198 µM (HT29; [4]) [%] | inhibition at 198 µM (MCF-7) [%] | EC50 (CCRF-CEM; Homo sapiens) [nM] | inhibition at 198 µM (CCRF-CEM; [2]) [%] | inhibition at 198 µM (OVCAR 3; [2]) [%] | EC50 (OVCAR 3; Homo sapiens, OVCAR 3, 72 h) [nM] | further results
CCN(CC)CC.C[C@H](NP(=O)(Oc1cccc2ccccc12)OP(O)(=S)OC[C@H]1O[C@@H](n2cnc3c(N)nc(Cl)nc32)[C@@H](F)[C@@H]1O)C(=O)OCc1ccccc1 (stereo partly drawn) [Example 26, 2-Chloro-9-(2′-Deoxy-2′-fluoro-β-D-arabinofuranosyl)adenine-5′-O-[l-naphthyl(benzoxy-L-alaninyl)] phosphorothiol-phosphate Triethylammonium Salt] |  |  |  |  |  |  |  |  |  |  |  |  |  |  |  |  |  |  |  | EC50 (RL): > 10000 nM; Top Inh (RL; [1]): 56%; Top Inhibit (HepG2; [1]): 49%; EC50 (MOLT-4): < 200 nM; Top Inh (MOLT-4; [1]): 84%; EC50 (RPMI-8226): 1000 to 5000 nM; Top Inh (RPMI-8226; [1]): 93%; EC50 (KG-1): < 200 nM; Top Inhibit (KG-1; [1]): 91%; EC50 (K562): > 10000 nM; Top Inh (K562; K562, 72 h, percentage inhibition at the highest concentration tested): 69%; EC50 (HL-60): < 200 nM; Top Inh (HL-60; [1]): 95%; EC50 (HT29): 200 to 1000 nM; Top Inhibit (HT29; [1]): 64%; Top Inhibit (MCF-7): 44%; EC50 (CCRF-CEM): < 200 nM; Top Inh (CCRF-CEM; [1]): 99%; EC50 (OVCAR 3; OVCAR 3, 72 h): > 10000 nM; Top Inhibit (OVCAR 3; OVCAR 3, 72 h, percentage inhibition at the highest concentration tested): 62%
Nc1nc(Cl)nc2c1ncn2[C@@H]1O[C@H](COP(=O)(O)OP(=O)(N[C@@H](Cc2ccccc2)C(=O)OCc2ccccc2)Oc2ccccc2)C(O)[C@H]1F (stereo partly drawn) [Example 22, 2-Chloro-9-(2′-Deoxy-2′-fluoro-β-D-arabinofuranosyl)adenine-5′-O-[l-phenyl(benzoxy-L-phenylalaninyl)] Diphosphate Triethylammonium Salt] | 42 | 47 | 89 | < 200 | 1000 to 5000 | 86 | < 200 | 92 | 62 | > 10000 | < 200 | 95 | 200 to 1000 | 69 | 50 | < 200 | 99 | 73 | > 10000 | 
C[C@H](NP(=O)(Oc1cccc2ccccc12)OP(=O)(O)OC[C@H]1O[C@@H](n2cnc3c(N)nc(Cl)nc32)[C@H](F)C1O)C(=O)OCC(C)(C)C (stereo partly drawn) [Example 13, 2-Chloro-9-(2′-Deoxy-2′-fluoro-β-D-arabinofuranosyl)adenine-5′-O-[1-naphthyl(neopentoxy-L-alaninyl)] Diphosphate Triethylammonium Salt] | 48 | 49 | 89 | < 200 | > 10000 | 88 | < 200 | 93 | 44 | > 10000 | < 200 | 96 | 200 to 1000 | 68 | 49 | < 200 | 99 | 80 | > 10000 | 
C[C@H](NP(=O)(Oc1cccc2c1CCCC2)OP(=O)(O)OC[C@H]1O[C@@H](n2cnc3c(N)nc(Cl)nc32)[C@H](F)C1O)C(=O)OCc1ccccc1 (stereo partly drawn) [Example 19, 2-Chloro-9-(2′-Deoxy-2′-fluoro-β-D-arabinofuranosyl)adenine-5′-O-[1-5,6,7,8-tetrahydro-1-naphthyl(benzoxy-L-alaninyl)] Diphosphate Triethylammonium Salt] | 57 | 51 | 90 | < 200 | > 10000 | 79 | < 200 | 92 | 37 | > 10000 | < 200 | 95 | 200 to 1000 | 68 | 47 | < 200 | 99 | 51 | > 10000 | EC50 (RL; Homo sapiens): 200 to 1000 nM; EC50 (HepG2; Homo sapiens, Table 4 classes, read-out: Ab EC50): 200 to 1000 nM
